Columns and labels:
[1] = biological target: T. brucei N-myristoyl transferase (Trypanosoma brucei brucei (strain 927/4 GUTat10.1), UniProt Q388H8); assay: biochemical; assay type: biochemical; details: value printed without enzyme tag in the NMT Enzyme column (taken as T. brucei NMT); read-out: IC50 (μM) NMT Enzyme
[2] = system: Trypanosome (T. brucei brucei); assay: In-vitro antitrypanosomal efficacy assay (cell growth, resazurin); assay type: cell-based; details: T. brucei cell growth
Protocol: To column 12, 200 μl media was added to provide a no cells control. Plates were then incubated at 37° C. in an atmosphere of 5% CO2 for 69 hours, before the addition of 20 μl of 500 μM rezasurin solution, and a further incubation period of 4 hours. […] Concentration effect curves were fitted using non-linear regression using XLFit 4.2 and EC50 values determined.

T. brucei N-myristoyl transferase, sequence (Q388H8 1-446): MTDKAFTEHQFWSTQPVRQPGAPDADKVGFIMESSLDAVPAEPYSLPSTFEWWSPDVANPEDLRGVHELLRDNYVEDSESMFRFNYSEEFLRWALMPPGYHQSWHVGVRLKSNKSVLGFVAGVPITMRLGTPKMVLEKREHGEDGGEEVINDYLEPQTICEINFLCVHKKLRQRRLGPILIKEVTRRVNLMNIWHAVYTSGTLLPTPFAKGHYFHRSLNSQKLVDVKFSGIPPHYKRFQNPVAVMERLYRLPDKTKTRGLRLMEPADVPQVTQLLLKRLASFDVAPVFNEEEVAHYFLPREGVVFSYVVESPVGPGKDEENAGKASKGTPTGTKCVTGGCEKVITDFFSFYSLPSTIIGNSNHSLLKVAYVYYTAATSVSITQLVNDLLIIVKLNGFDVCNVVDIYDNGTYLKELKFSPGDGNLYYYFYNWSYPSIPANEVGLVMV

| SMILES | IC50 [1] | ED50 (μM) T. brucei [2] |
| --- | --- | --- |
| Cc1nn(C)c(C)c1N[S+](=O)([O-])c1ccc(NCc2ccc(Cl)c(Cl)c2)nc1 [DDD73325] | 12.8 µM | >1 µM |
| Cc1nn(C)c(C)c1N[S+](=O)([O-])c1ccc(NCc2ccc3c(c2)OCO3)nc1 [DDD73326] | 1.4 µM | >1 µM |
| Cc1nn(C)c(C)c1N[S+](=O)([O-])c1ccc(NCCCc2ccccc2)nc1 [DDD73327] | 2.8 µM | >1 µM |
| COc1ccccc1CNc1ccc([S+](=O)([O-])Nc2c(C)nn(C)c2C)cn1 [DDD73328] | 2.4 µM | 19.1 µM |
| COc1cccc(CNc2ccc([S+](=O)([O-])Nc3c(C)nn(C)c3C)cn2)c1 [DDD73329] | 1.6 µM | >1 µM |
| Cc1nn(C)c(C)c1N[S+](=O)([O-])c1ccc(NCC(O)c2ccccc2)nc1 (stereo not shown) [DDD73330] | 2.3 µM | >1 µM |
| Cc1nn(C)c(C)c1N[S+](=O)([O-])c1ccc(N2Cc3ccccc3CC2CO)nc1 (stereo not shown) [DDD73331] | 6 µM | >1 µM |
| Cc1nn(C)c(C)c1N[S+](=O)([O-])c1ccc(NCc2ccc3[nH]ccc3c2)nc1 [DDD73332] | 0.34 µM | 3.2 µM |
| Cc1nn(C)c(C)c1N[S+](=O)([O-])c1ccc(NC(CO)c2ccccc2)nc1 (stereo not shown) [DDD73333] | > 100 µM | >1 µM |
| Cc1nn(C)c(C)c1N[S+](=O)([O-])c1ccc(NCc2ccc(N3CCOCC3)cc2)nc1 [DDD73475] | 0.88 µM | 10.5 µM |
| Cc1nn(C)c(C)c1N[S+](=O)([O-])c1ccc(NCc2nc3ccccc3s2)nc1 [DDD73477] | 0.46 µM | 6.0 µM |
| Cc1nn(C)c(C)c1N[S+](=O)([O-])c1ccc(NC2Cc3ccccc3C2)nc1 [DDD73478] | 0.36 µM | 4.5 µM |
| Cc1nn(C)c(C)c1N[S+](=O)([O-])c1c(Cl)cc(C#CC2CCCCC2)cc1Cl [DDD73479] | > 100 µM | >1 µM |
| Cc1nn(C)c(C)c1N[S+](=O)([O-])c1ccc(Nc2ccccc2)nc1 [DDD73480] | 4.5 µM | 22.1 µM |
| Cc1nn(C)c(C)c1N[S+](=O)([O-])c1ccc(N2CCC(c3ccccc3)CC2)nc1 [DDD73481] | 6.9 µM | >1 µM |
| Cc1nn(C)c(C)c1N[S+](=O)([O-])c1ccc(NCCc2ccc(-c3ccccc3)cc2)nc1 [DDD73482] | 60 µM | >1 µM |
| Cc1nn(C)c(C)c1N[S+](=O)([O-])c1ccc(Nc2ccc(Oc3ccccc3)cc2)nc1 [DDD73483] | > 100 µM | >1 µM |
| Cc1nn(C)c(C)c1N[S+](=O)([O-])c1c(Cl)cc(C#Cc2cncn2C)cc1Cl [DDD73484] | 0.67 µM | 3.1 µM |
| Cc1nn(C)c(C)c1N[S+](=O)([O-])c1c(Cl)cc(C#Cc2ccccc2)cc1Cl [DDD73485] | 34.3 µM | >1 µM |
| Cc1nn(C)c(C)c1N[S+](=O)([O-])c1ccc(N[C@H](C)c2ccc3ccccc3c2)nc1 [DDD73486] | 2.8 µM | >1 µM |
| Cc1nn(C)c(C)c1N[S+](=O)([O-])c1ccc(NCc2ccn(C)n2)nc1 [DDD73487] | 1.2 µM | 14.2 µM |
| Cc1nn(C)c(C)c1N[S+](=O)([O-])c1ccc(NCCc2ccc3ccccc3c2)nc1 [DDD73489] | 12.4 µM | >1 µM |
| CCCn1nc(C)c(N[S+](=O)([O-])c2c(C)cc(OC)c(C)c2C)c1C [DDD73491] | 28.4 µM | >1 µM |
| Cc1nn(C)c(C)c1N[S+](=O)([O-])c1ccc(NCC(c2ccccc2)c2ccccc2)nc1 [DDD73492] | 13.6 µM | >1 µM |
| Cc1cnn(-c2ccc(CNc3ccc([S+](=O)([O-])Nc4c(C)nn(C)c4C)cn3)cc2)n1 [DDD73493] | 4.4 µM | >1 µM |
| Cc1nn(C)c(C)c1N[S+](=O)([O-])c1ccc(NCc2ccc(-n3ccnc3C)cc2)nc1 [DDD73494] | 0.71 µM | 8.8 µM |
| Cc1nn(C)c(C)c1N[S+](=O)([O-])c1ccc(NCC(C)c2ccccc2)nc1 (stereo not shown) [DDD73495] | 0.96 µM | 7.8 µM |

| SMILES | IC50 [1] | ED50 (μM) T. brucei [2] |
| --- | --- | --- |
| COc1cc(C)c([S+](=O)([O-])Nc2c(C)nn(CCc3ccccc3)c2C)c(C)c1C [DDD73496] | > 100 µM | >1 µM |
| COc1cc(C)c([S+](=O)([O-])Nc2c(C)nn(C(C)C)c2C)c(C)c1C [DDD73497] | > 100 µM | >1 µM |
| Cc1nn(C)c(C)c1N[S+](=O)([O-])c1ccc(COc2ccc(C(C)(C)c3ccccc3)cc2)cc1 [DDD73499] | > 100 µM | >1 µM |
| COc1cc(NCc2ccc([S+](=O)([O-])Nc3c(C)nn(C)c3C)cc2)cc(OC)c1OC [DDD73501] | 19 µM | >1 µM |
| Cc1nn(C)c(C)c1N[S+](=O)([O-])c1ccc(CNc2ccc(Oc3ccccc3)cc2)cc1 [DDD73502] | 4.8 µM | >1 µM |
| Cc1nn(C)c(C)c1N[S+](=O)([O-])c1ccc(Cn2cnc(-c3ccccc3)c2)cc1 [DDD73503] | 2.5 µM | 10.5 µM |
| Cc1nn(C)c(C)c1N[S+](=O)([O-])c1ccc(CNc2ccncn2)cc1 [DDD73504] | 4.2 µM | >1 µM |
| Cc1nn(C)c(C)c1N[S+](=O)([O-])c1ccc(CNc2ccc(C(C)C)cc2)cc1 [DDD73505] | 9.7 µM | >1 µM |
| Cc1nn(C)c(C)c1N[S+](=O)([O-])c1ccc(CNc2ccc(N3CCOCC3)cc2)cc1 [DDD73506] | 10 µM | >1 µM |
| Cc1nn(C)c(C)c1N[S+](=O)([O-])c1ccc(COc2ccc3cc[nH]c3c2)cc1 [DDD73507] | 4.5 µM | >1 µM |
| Cc1nn(C)c(C)c1N[S+](=O)([O-])c1ccc(CNc2ccc(-c3ccccn3)cc2)cc1 [DDD73508] | 5.2 µM | >1 µM |
| Cc1nn(C)c(C)c1N[S+](=O)([O-])c1ccc(CNc2ccccc2)cc1 [DDD73509] | 3.8 µM | >1 µM |
| Cc1nn(C)c(C)c1N[S+](=O)([O-])c1ccc(CNc2noc(C)c2C)cc1 [DDD73510] | 26.9 µM | >1 µM |
| Cc1nn(C)c(C)c1N[S+](=O)([O-])c1ccc(COCc2ccc3ccccc3c2)cc1 [DDD73511] | > 100 µM | >1 µM |
| Cc1nn(C)c(C)c1N[S+](=O)([O-])c1ccc(Cn2cnc3ccccc32)cc1 [DDD73512] | 6.1 µM | >1 µM |
| COc1ccc(NCc2ccc([S+](=O)([O-])Nc3c(C)nn(C)c3C)cc2)cc1 [DDD73513] | 5.7 µM | >1 µM |
| Cc1nn(C)c(C)c1N[S+](=O)([O-])c1ccc(CSc2ccc3ccccc3c2)cc1 [DDD73516] | 47.6 µM | >1 µM |
| Cc1nn(C)c(C)c1N(C1CC1)[S+](=O)([O-])c1c(Cl)cc(Br)cc1Cl [DDD85591] | 0.59 µM | 5.3 µM |
| Cc1nn(C)c(C)c1N[S+](=O)([O-])c1ccc(CNC2CCc3ccccc32)cc1 (stereo not shown) [DDD85592] | 44 µM | >1 µM |
| Cc1nn(C)c(C)c1N(CCCO)S(=O)(=O)c1c(Cl)cc(Br)cc1Cl [DDD85593, 4-Bromo-2,6-dichloro-N-(3-hydroxy-propyl)-N-(1,3,5-trimethyl-1H-pyrazol-4-yl)-benzenesulfonamide] | 0.36 µM | 3.5 µM |
| CCCN(c1c(C)nn(C)c1C)[S+](=O)([O-])c1c(Cl)cc(Br)cc1Cl [DDD85594] | 3.2 µM | 21.0 µM |
| Cc1nn(C)c(C)c1N[S+](=O)([O-])c1ccc(CN2CCCc3ccccc32)cc1 [DDD85596] | 41.7 µM | >1 µM |
| Cc1nn(C)c(C)c1N[S+](=O)([O-])c1ccc(N2CCc3ccccc32)nc1 [DDD85597] | 8 µM | >1 µM |
| Cc1nn(C)c(C)c1N[S+](=O)([O-])c1ccc(N2Cc3ccccc3C2)nc1 [DDD85598] | 18.2 µM | >1 µM |
| Cc1nn(C)c(C)c1N[S+](=O)([O-])c1ccc(CSCc2ccccc2)cc1 [DDD85599] | 2.4 µM | >1 µM |
| Cc1nn(C)c(C)c1N(C1CCCC1)[S+](=O)([O-])c1c(Cl)cc(Br)cc1Cl [DDD85600] | 1.9 µM | 5.9 µM |

Source: patent US9156811B2 (priority 2008, dated 2015)
